In PMC12348863 (Molecules, 2025):

Experiments:
[1] = In vitro permeation (PAMPA) test; type: in vitro ADME; conditions: 159 µM CBD
Description: In vitro permeation (PAMPA) tests were performed to evaluate differences in permeation parameters between regular (lipophilic) CBD and the water-soluble CBD complex. Atenolol and metoprolol were included as control substances. The initial concentration of CBD in the donor medium was 159 µM, while the concentrations of atenolol and metoprolol were 500 µM each. The experiments were conducted using a 96-well PAMPA plate with PVDF filter membranes (Sigma-Aldrich). The donor medium consisted of 50 mM phosphate buffer (pH 6.5, Sigma-Aldrich) containing 5% (v/v) DMSO, with a volume of 300 µL per well. The acceptor medium used was Pion’s “acceptor sink buffer” (Billerica, MA, USA), added in a volume of 200 µL per well. The artificial membrane solution consisted of 1% (w/v) cholesterol (Merck, Darmstadt, Germany) dissolved in a 3:1 (v/v) mixture of dodecane and n-hexane. Prior to the experiment, 4 µL of this membrane solution was applied to each filter membrane. Each test compound was assessed in 12 replicates. The total duration of the experiment was 260 min. […] At the end of this experiment, both donor and acceptor solutions were analysed by HPLC. CBD concentrations were determined using HPLC with UV detection, according to the method described by Križman [39] […] Atenolol and metoprolol concentrations were analysed by HPLC with FL detection, following the protocol of Yilmaz et al. [40] […]

[2] = unformulated CBD; cited from earlier work
[3] = Water solubility analysis (dissolved CBD in deionised water, HPLC); type: physicochemical
Description: The prepared CBD-GA complexes, in various molar ratios, were tested for water solubility. In a typical experiment, between 1.0 and 1.5 mg of the complex was accurately weighed and dissolved in 1 mL of deionised water (Merck Millipore, Burlington, MA, USA) under vigorous mixing. If necessary, an ultrasonic bath was employed to aid dissolution.
Following mixing, the solution was centrifuged for 3 min at 3000× g. The resulting supernatant was transferred to vials for HPLC analysis. The concentration of dissolved CBD was quantified using a chromatographic method with an Agilent 1260 Infinity HPLC system (Waldbronn, Germany). Further details are provided in Appendix A.4.
The concentration of CBD in dissolution and permeation test samples was assayed using an Agilent 1260 Infinity system with UV detection. The column in use was Luna C18(2) (Phenomenex, Torrance, CA, USA), with dimensions 150 mm × 3 mm, 3 µm particle size. The column flow rate was 0.8 mL/min at 37 °C. The elution was isocratic, with the mobile phase consisting of acetonitrile–water at a ratio of 31:9 (v/v), with 10 mM ammonium formate and 0.1% (v/v) formic acid added (without pH adjustment). The injection volume was 5 µL, and the run time was 5 min. The UV detector wavelength was set at 275 nm.

In the case of `C=C(C)[C@@H]1CCC(C)=C[C@H]1c1c(O)cc(CCCCC)cc1O` [pure CBD, Cannabidiol], the Papp at 260 min, 159 µM ([1]; donor 50 mM phosphate buffer pH 6.5 with 5% DMSO, 12 replicates, read-out: average permeability) is listed as 1.98 ×10⁻⁶ cm/s, the “mass retention in the lipophilic membrane” value ([1]; donor pH 6.5 with 5% DMSO, 260 min, average) is listed as 84% and the aqueous solubility [2] is listed as “less than 60 ng/mL”. For the same compound, the solubility ([3]; deionised water, supernatant after centrifugation, HPLC, read-out: CBD Concentration (water solubility)) was under 0.06 µg/mL and the “aqueous solubility, times lower than that of the water-soluble CBD complex” value ([3]; unformulated CBD versus water-soluble CBD complex) was “more than 400 times”.
